Data: PubChem BioAssay (NCI)
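The concentration for 50% growth inhibition is given as GI50. The concentration for full growth arrest is given as TGI.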

What was measured:
Assay in all cases: NCI anticancer screen, dose series, 384-well format; in the data active = GI50 below about 0.43 µM; inactive = the rest
MALME-3M melanoma = test system: MALME-3M melanoma
IGROV1 ovarian = test system: IGROV1 ovarian
HCT-116 colon = test system: HCT-116 colon
SNB-19 CNS = test system: SNB-19 CNS
MDA-MB-231 breast = test system: MDA-MB-231 breast
SF-268 CNS = test system: SF-268 CNS
HCT-15 colon = test system: HCT-15 colon
KM12 colon = test system: KM12 colon
NCI-H522 lung = test system: NCI-H522 lung
SNB-75 CNS = test system: SNB-75 CNS
MCF7 breast = test system: MCF7 breast
HS 578T breast = test system: HS 578T breast
HCC-2998 colon = test system: HCC-2998 colon
OVCAR-3 ovarian = test system: OVCAR-3 ovarian
M14 melanoma = test system: M14 melanoma
EKVX NSCLC = test system: EKVX NSCLC
ACHN renal = test system: ACHN renal
NCI-H322M lung = test system: NCI-H322M lung
SN12C renal = test system: SN12C renal
RXF 393 renal = test system: RXF 393 renal
SK-MEL-5 melanoma = test system: SK-MEL-5 melanoma
MDA-MB-435 melanoma = test system: MDA-MB-435 melanoma
TK-10 renal = test system: TK-10 renal
NCI-H23 lung = test system: NCI-H23 lung
NCI/ADR-RES ovarian = test system: NCI/ADR-RES ovarian
A549 NSCLC = test system: A549 NSCLC
COLO 205 colon = test system: COLO 205 colon
K-562 leukemia = test system: K-562 leukemia
T-47D breast = test system: T-47D breast
NCI-H226 lung = test system: NCI-H226 lung
A498 renal = test system: A498 renal
CCRF-CEM leukemia = test system: CCRF-CEM leukemia
OVCAR-5 ovarian = test system: OVCAR-5 ovarian
SK-MEL-28 melanoma = test system: SK-MEL-28 melanoma
SR leukemia = test system: SR leukemia
RPMI-8226 leukemia = test system: RPMI-8226 leukemia
SW-620 colon = test system: SW-620 colon
CAKI-1 renal = test system: CAKI-1 renal
UO-31 renal = test system: UO-31 renal
HOP-62 NSCLC = test system: HOP-62 NSCLC
U251 glioblastoma = test system: U251 glioblastoma
BT-549 breast = test system: BT-549 breast
MOLT-4 leukemia = test system: MOLT-4 leukemia
SK-OV-3 ovarian = test system: SK-OV-3 ovarian
OVCAR-4 ovarian = test system: OVCAR-4 ovarian
HT29 colon = test system: HT29 colon
HL-60(TB) leukemia = test system: HL-60(TB) leukemia
LOX IMVI melanoma = test system: LOX IMVI melanoma
UACC-257 melanoma = test system: UACC-257 melanoma
PC-3 prostate = test system: PC-3 prostate
SF-539 CNS = test system: SF-539 CNS
786-0 renal = test system: 786-0 renal
OVCAR-8 ovarian = test system: OVCAR-8 ovarian
MDA-MB-468 breast = test system: MDA-MB-468 breast
NCI-H460 NSCLC = test system: NCI-H460 NSCLC
DU-145 prostate = test system: DU-145 prostate
HOP-92 NSCLC = test system: HOP-92 NSCLC
SF-295 CNS = test system: SF-295 CNS

O=C(NC[C@H](O)CO)c1ccncc1Nc1ccc(I)cc1F
18.8 µM: TGI (A549 NSCLC)
24.4 µM: TGI (MDA-MB-231 breast)
34.5 µM: TGI (A498 renal)
1.45 µM: TGI (HCT-116 colon)
13.9 µM: TGI (SK-MEL-5 melanoma)
17.4 µM: TGI (RXF 393 renal)
11.5 µM: TGI (UO-31 renal)
25 µM: TGI (SF-539 CNS)
0.0235 µM: TGI (M14 melanoma)
active: GI50 (MALME-3M melanoma) < 0.01 µM | GI50 (IGROV1 ovarian) 0.0849 µM | GI50 (HCT-116 colon) 0.0614 µM | GI50 (KM12 colon) 0.0953 µM | GI50 (HCC-2998 colon) 0.0278 µM | GI50 (M14 melanoma) < 0.01 µM | GI50 (SK-MEL-5 melanoma) 0.0331 µM | GI50 (MDA-MB-435 melanoma) 0.0134 µM | GI50 (NCI-H23 lung) 0.0413 µM | GI50 (A549 NSCLC) 0.3 µM | GI50 (COLO 205 colon) < 0.01 µM | GI50 (K-562 leukemia) 0.423 µM | GI50 (OVCAR-5 ovarian) 0.0476 µM | GI50 (SK-MEL-28 melanoma) < 0.01 µM | GI50 (SW-620 colon) < 0.01 µM | GI50 (UO-31 renal) 0.354 µM | GI50 (HOP-62 NSCLC) 0.25 µM | GI50 (HT29 colon) 0.0156 µM | GI50 (HL-60(TB) leukemia) < 0.01 µM | GI50 (LOX IMVI melanoma) 0.0887 µM | GI50 (UACC-257 melanoma) < 0.01 µM
0.0136 µM: TGI (SK-MEL-28 melanoma)
68 µM: TGI (SNB-75 CNS)
1.73 µM: TGI (NCI-H23 lung)
36.2 µM: TGI (MDA-MB-468 breast)
> 100 µM: TGI (SNB-19 CNS) | TGI (SF-268 CNS) | TGI (HCT-15 colon) | TGI (KM12 colon) | TGI (NCI-H522 lung) | TGI (MCF7 breast) | TGI (HS 578T breast) | TGI (OVCAR-3 ovarian) | TGI (EKVX NSCLC) | TGI (ACHN renal) | TGI (NCI-H322M lung) | TGI (SN12C renal) | TGI (MDA-MB-435 melanoma) | TGI (NCI/ADR-RES ovarian) | TGI (K-562 leukemia) | TGI (T-47D breast) | TGI (CCRF-CEM leukemia) | TGI (OVCAR-5 ovarian) | TGI (SW-620 colon) | TGI (CAKI-1 renal) | TGI (HOP-62 NSCLC) | TGI (U251 glioblastoma) | TGI (BT-549 breast) | TGI (SK-OV-3 ovarian) | TGI (OVCAR-4 ovarian) | TGI (HT29 colon) | TGI (PC-3 prostate) | TGI (786-0 renal) | TGI (OVCAR-8 ovarian) | TGI (NCI-H460 NSCLC) | TGI (DU-145 prostate) | TGI (SF-295 CNS)
0.0319 µM: TGI (UACC-257 melanoma)
inactive: GI50 (SNB-19 CNS) 13.2 µM | GI50 (MDA-MB-231 breast) 0.449 µM | GI50 (SF-268 CNS) > 100 µM | GI50 (HCT-15 colon) 3.19 µM | GI50 (NCI-H522 lung) 13.6 µM | GI50 (SNB-75 CNS) 8.92 µM | GI50 (MCF7 breast) 18.9 µM | GI50 (HS 578T breast) 16 µM | GI50 (OVCAR-3 ovarian) 14 µM | GI50 (EKVX NSCLC) 8.37 µM | GI50 (ACHN renal) 13.8 µM | GI50 (NCI-H322M lung) 0.498 µM | GI50 (SN12C renal) 4.09 µM | GI50 (RXF 393 renal) 2.03 µM | GI50 (TK-10 renal) 2.24 µM | GI50 (NCI/ADR-RES ovarian) 22.3 µM | GI50 (T-47D breast) 26.1 µM | GI50 (NCI-H226 lung) 0.614 µM | GI50 (A498 renal) 2.63 µM | GI50 (CCRF-CEM leukemia) 34.5 µM | GI50 (SR leukemia) 1.33 µM | GI50 (RPMI-8226 leukemia) 7.66 µM | GI50 (CAKI-1 renal) 0.433 µM | GI50 (U251 glioblastoma) 1.67 µM | GI50 (BT-549 breast) 15 µM | GI50 (MOLT-4 leukemia) 12.3 µM | GI50 (SK-OV-3 ovarian) 23.1 µM | GI50 (OVCAR-4 ovarian) 21.5 µM | GI50 (PC-3 prostate) > 100 µM | GI50 (SF-539 CNS) 2.9 µM | GI50 ([…]-0 renal) 19.6 µM | GI50 (OVCAR-8 ovarian) 27 µM | GI50 (MDA-MB-468 breast) 14.8 µM | GI50 (NCI-H460 NSCLC) 1.55 µM | GI50 (DU-145 prostate) 8.45 µM | GI50 (HOP-92 NSCLC) 0.484 µM | GI50 (SF-295 CNS) 30.6 µM
25.2 µM: TGI (MOLT-4 leukemia)
3.62 µM: TGI (HOP-92 NSCLC)
0.171 µM: TGI (COLO 205 colon)
0.0114 µM: TGI (HL-60(TB) leukemia)
1.72 µM: TGI (LOX IMVI melanoma)
10.9 µM: TGI (IGROV1 ovarian)
47.3 µM: TGI (RPMI-8226 leukemia)
47.4 µM: TGI (NCI-H226 lung)
0.217 µM: TGI (HCC-2998 colon)
15.9 µM: TGI (SR leukemia)
39 µM: TGI (TK-10 renal)
